Data taken from paper PMC4397911 (Bioorganic & medicinal chemistry letters, 2013).

Key:
[1] = target: NA from Virus H5N1 (soluble viral NA, N1) (Influenza A virus, UniProt Q6DPL2); test: biochemical; conditions: IC50 inhibition of soluble NA from Virus H5N1
[2] = target: NA from Virus H3N2 (soluble viral NA, N2) (Influenza A virus, UniProt Q91MA2); test: biochemical; conditions: IC50 inhibition of soluble NA from Virus H3N2
Sequence of NA from Virus H3N2 (soluble viral NA, N2) (Q91MA2 31-469 limits assumed): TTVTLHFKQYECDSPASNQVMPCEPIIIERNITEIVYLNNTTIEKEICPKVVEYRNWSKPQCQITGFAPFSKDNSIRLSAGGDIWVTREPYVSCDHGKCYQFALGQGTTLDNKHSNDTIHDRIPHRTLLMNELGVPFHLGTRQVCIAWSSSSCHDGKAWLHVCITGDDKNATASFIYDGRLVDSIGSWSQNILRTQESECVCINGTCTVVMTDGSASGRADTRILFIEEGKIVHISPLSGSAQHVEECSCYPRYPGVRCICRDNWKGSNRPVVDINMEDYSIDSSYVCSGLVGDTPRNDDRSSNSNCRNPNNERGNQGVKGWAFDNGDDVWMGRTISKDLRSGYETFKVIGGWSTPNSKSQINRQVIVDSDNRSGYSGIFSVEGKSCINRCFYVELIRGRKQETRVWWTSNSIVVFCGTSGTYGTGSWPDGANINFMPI

Sequence of NA from Virus H5N1 (soluble viral NA, N1) (Q6DPL2 35-449 limits assumed): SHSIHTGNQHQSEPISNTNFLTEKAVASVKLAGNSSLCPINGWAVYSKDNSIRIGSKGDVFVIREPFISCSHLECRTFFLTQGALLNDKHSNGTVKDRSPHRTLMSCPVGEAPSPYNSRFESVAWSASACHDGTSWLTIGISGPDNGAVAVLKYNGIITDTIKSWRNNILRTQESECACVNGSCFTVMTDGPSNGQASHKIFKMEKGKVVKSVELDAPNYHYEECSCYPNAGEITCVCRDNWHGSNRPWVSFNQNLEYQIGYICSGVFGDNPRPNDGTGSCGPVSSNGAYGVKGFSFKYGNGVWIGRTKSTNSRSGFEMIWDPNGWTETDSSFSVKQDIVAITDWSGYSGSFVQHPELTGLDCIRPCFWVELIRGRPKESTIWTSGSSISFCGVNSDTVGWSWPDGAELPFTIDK

SMILES	IC50 [1] [µM]	IC50 [2] [µM]
CC(=O)N[C@H]1[C@H]([C@H](O)[C@H](O)CO)OC(SCCOCCOCCOCCOCCOCCSC2(C(=O)O)C[C@H](N)[C@@H](NC(C)=O)[C@H]([C@H](O)[C@H](O)CO)O2)(C(=O)O)C[C@@H]1N (stereo partly shown) [HexaEG-SA]	0.57 ± 0.06	11 ± 2
CC(=O)N[C@H]1[C@H]([C@H](O)[C@H](O)CO)OC(SCCOCCOCCOCCOCCSC2(C(=O)O)C[C@H](N)[C@@H](NC(C)=O)[C@H]([C@H](O)[C@H](O)CO)O2)(C(=O)O)C[C@@H]1N (stereo partly shown) [PentaEG-SA]	1.1 ± 0.1	10 ± 2
CC(=O)N[C@H]1[C@H]([C@H](O)[C@H](O)CO)OC(SCCCCCCS)(C(=O)O)C[C@@H]1NC(=N)N (stereo partly shown) [SG]	0.1 ± 0.02	–
CC(=O)N[C@H]1[C@H]([C@H](O)[C@H](O)CO)OC(SCCCCCCS)(C(=O)O)C[C@@H]1N (stereo partly shown) [SA]	60 to 180	60 to 180
